Where “and” joins values, the source holds several entries; their conditions need not be identical. Identical values can stand only once.
Legend:
CSF1R = CSF1R (Homo sapiens (Human), UniProt P07333); assay type: biochemical; conditions: Kinase Profiler
[1] = test system: EMT6 breast cancer tumours; test: EMT6 immune-excluded (cold) tumour syngeneic mouse model; assay type: in vivo, BALB/c mice; set-up: key to Tukey's multiple comparisons test, Significance summary: ns = not significant; conditions: for Tukey's multiple comparisons test, Significance summary: EMT6 model; for tumour growth inhibition (TGI): EMT6
[2] = test system: SIK3 WT and KO MC38 clones; test: TNF-mediated killing of SIK3 wildtype vs SIK3 knockout MC38 clones (CTG); assay type: cell-based, mouse; conditions: sub-optimal TNF (<10 ng/ml), 72 h
Procedure: The assay was performed as follows: MC38 SIK3 KO clones were generated using CRISPR. Cells were transfected with RNP complexes (Cas9+gRNA) containing gRNAS targeting SIK3 or non-targeting sequences (control). […] Subsequently, single cell clones were generated by limiting dilution. CRISPR-derived mutations in single clones were detected by next-generation sequencing and analysed using CRISPResso. Knockout and wildtype clones were selected and plated overnight. […] Cells treated with different concentrations of inhibitor but without TNF served as no TNF control. Cell viability was measured by CTG assay.

[3] = female, C57BL/6, mouse, in vivo, 7 days
SIK2 = SIK2 (Homo sapiens (Human), UniProt Q9H0K1); test: SIK2 kinase inhibition (IC50); conditions: read-out: Kinase: IC50 (nM) SIK2
SIK3 = SIK3 (Homo sapiens (Human), UniProt Q9Y2K2); test: SIK3 kinase inhibition (IC50); conditions: read-out: Kinase: IC50 (nM) SIK3
MDR1 (P-gp) = MDR1 (P-gp) (Homo sapiens (Human), UniProt P08183); test: MDR1-MDCK effective efflux assay; conditions: dog; for efflux ratio: Table 5.1B
[4] = biological target: MDR1 pump (P-gp), MDCK-MDR1 cells (Homo sapiens (Human), UniProt P08183); test: MDR1-MDCK effective efflux assay; conditions: Table 5.1B
[5] = test system: MC38 colorectal carcinoma tumours; test: MC38 syngeneic mouse tumour model (Example 8.1); conditions: MC38; for Body weight increase (%) / Non-treatment related death / Tumour growth inhibition (%): BID po
HCT116 cells = test: TNF-sensitised cell viability assay (CellTiter-Glo); conditions: Homo sapiens, HCT-116, read-out: HCT116 IC50 (at 10 ng/ml rHuTNF)
PANC1 cells = test: as above; conditions: Homo sapiens, PANC-1, read-out: PANC IC50 (at 100 ng/ml rHuNF)
[6] = test system: NFKB activity in PANC-1 cells; test: TNF-induced NFKB activity (NFKB-dependent luciferase reporter); conditions: 10 ng/ml rHuTNF, PANC-1 reporter cells

Sequence of CSF1R (P07333 20-972 limits assumed): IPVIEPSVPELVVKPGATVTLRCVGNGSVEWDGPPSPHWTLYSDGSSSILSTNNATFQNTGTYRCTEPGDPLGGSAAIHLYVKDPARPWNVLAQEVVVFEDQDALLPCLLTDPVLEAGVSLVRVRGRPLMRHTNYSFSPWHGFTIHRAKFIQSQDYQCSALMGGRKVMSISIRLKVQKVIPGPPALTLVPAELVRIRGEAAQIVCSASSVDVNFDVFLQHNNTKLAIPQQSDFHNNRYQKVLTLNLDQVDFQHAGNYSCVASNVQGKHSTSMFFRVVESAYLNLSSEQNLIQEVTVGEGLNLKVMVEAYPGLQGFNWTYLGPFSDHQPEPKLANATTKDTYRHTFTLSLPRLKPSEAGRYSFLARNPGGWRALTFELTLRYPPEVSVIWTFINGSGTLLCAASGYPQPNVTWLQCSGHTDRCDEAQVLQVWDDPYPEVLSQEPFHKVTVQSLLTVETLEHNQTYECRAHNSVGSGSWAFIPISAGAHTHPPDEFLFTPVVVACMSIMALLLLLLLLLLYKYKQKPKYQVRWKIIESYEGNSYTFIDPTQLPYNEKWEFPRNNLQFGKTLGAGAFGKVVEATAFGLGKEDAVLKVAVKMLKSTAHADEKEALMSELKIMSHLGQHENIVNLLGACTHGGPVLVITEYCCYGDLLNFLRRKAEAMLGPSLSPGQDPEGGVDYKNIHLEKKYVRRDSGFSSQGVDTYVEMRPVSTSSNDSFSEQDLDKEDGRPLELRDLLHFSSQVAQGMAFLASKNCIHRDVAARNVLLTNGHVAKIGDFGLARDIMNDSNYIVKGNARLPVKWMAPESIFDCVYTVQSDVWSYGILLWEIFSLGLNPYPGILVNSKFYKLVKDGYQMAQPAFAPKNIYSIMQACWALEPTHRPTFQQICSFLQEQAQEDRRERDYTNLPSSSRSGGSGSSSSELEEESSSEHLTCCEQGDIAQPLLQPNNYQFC

## Cc1nc(Nc2ncc(C(=O)Nc3c(CF)csc3Cl)s2)cc(N2CCN(C)CC2)n1 [Compound E9, N-(2-chloro-4-(fluoromethyl)thiophen-3-yl)-2-((2-methyl-6-(4-methylpiperazin-1-yl)pyrimidin-4-yl)amino)thiazole-5-carboxamide]
CSF1R
  CSF1R residual activity: less than 1%
[1]; E9 25 mg/kg bid vs. E9 […] bid
  Tukey's multiple comparisons test, Significance summary: ns
[1]; E9 25 mg/kg qd vs. E9 5 mg/kg bid
  Tukey's multiple comparisons test, Significance summary: ns
[1]; 5 mg/kg BID
  tumour growth inhibition (TGI): 24% and 25%
[1]; 25 mg/kg BID
  tumour growth inhibition (TGI): 37%
[1]; 25 mg/kg QD
  tumour growth inhibition (TGI): 9%
[1]; Vehicle vs. E9 25 mg/kg qd
  Tukey's multiple comparisons test, Significance summary: ns
[2]
  TNF-mediated killing in SIK3 WT vs KO MC38 clones: induced TNF-mediated killing only in SIK3 WT clones
[3]
  DLT@BID dosing: n.d. @50 mg/kg
  DLT@QD dosing: n.d. @50 mg/kg
  HRD in vivo @BID: 50 mg/kg
  HRD in vivo @QD: 50 mg/kg
SIK2
  IC50: < 10 nM
SIK3
  IC50: < 20 nM
MDR1 (P-gp); MDCK-MDR1
  Papp: 50 nm/s
MDR1 (P-gp); MDCK-MDR1, MDCK-MDR1 cells, Mean Efflux Ratio (MDR1)
  efflux ratio: 20 to 30
MDR1 (P-gp); MDCK-MDR1, P-gP driven efflux ratio (MDR1/wt)
  efflux ratio: 27
[4]
  MDCK-MDR1 cells, Mean Efflux Ratio (MDR1): 26
[5]; 25 mg/Kg
  Body weight increase (%): 16.8%
  Non-treatment related death: 2/16
  Tumour growth inhibition (%): 74%
[5]; 25 mg/kg BID
  average TGI: 72%
[5]; 50 mg/Kg
  Body weight increase (%): 18.7%
  Non-treatment related death: 3/16
  Tumour growth inhibition (%): 69%
HCT116 cells
  IC50: < 0.1 µM
PANC1 cells
  IC50: < 0.1 µM
[6]
  Inhibition of NFKB activity (PANC-1): ++

From US20230348453A1, “HALOGENATED-HETEROARYL AND OTHER HETEROCYCLIC KINASE INHIBITORS, AND USES THEREOF” (iOmx Therapeutics AG, priority 2020, published 2023)
